Experiments:
Wee1-like protein kinase = Wee1-like protein kinase (Homo sapiens, UniProt P30291); experiment: Inhibition of Wee1 (unknown origin) incubated for 60 mins by LanthaScreen Eu-Kinase binding assay
NCI-H1299 = experiment: Antiproliferative activity against human NCI-H1299 cells assessed as cell growth inhibition incubated for 3 days by CellTiter-Glo Luminescent assay; format: functional, cell-based; conditions: NCI-H1299, 72 h
[1] = AUC (0-infinity) in rat at 5 mg/kg,IG measured upto 24 hrs by LC-MS/MS analysis; format: ADME, organism-based; parameters: dose 5 mg/kg, time < 24 hrs, route ig; conditions: in vivo, po
[2] = Half life in rat at 5 mg/kg,IG measured upto 24 hrs by LC-MS/MS analysis; format: ADME, organism-based; conditions: in vivo, po
[3] = Tmax in rat at 5 mg/kg,IG measured upto 24 hrs by LC-MS/MS analysis; format: ADME, organism-based; conditions: in vivo, po
[4] = Cmax in rat at 5 mg/kg,IG measured upto 24 hrs by LC-MS/MS analysis; format: ADME, organism-based; parameters: dose 5 mg/kg, time < 24 hrs, route ig; conditions: in vivo, po

Wee1-like protein kinase, sequence (P30291 whole entry): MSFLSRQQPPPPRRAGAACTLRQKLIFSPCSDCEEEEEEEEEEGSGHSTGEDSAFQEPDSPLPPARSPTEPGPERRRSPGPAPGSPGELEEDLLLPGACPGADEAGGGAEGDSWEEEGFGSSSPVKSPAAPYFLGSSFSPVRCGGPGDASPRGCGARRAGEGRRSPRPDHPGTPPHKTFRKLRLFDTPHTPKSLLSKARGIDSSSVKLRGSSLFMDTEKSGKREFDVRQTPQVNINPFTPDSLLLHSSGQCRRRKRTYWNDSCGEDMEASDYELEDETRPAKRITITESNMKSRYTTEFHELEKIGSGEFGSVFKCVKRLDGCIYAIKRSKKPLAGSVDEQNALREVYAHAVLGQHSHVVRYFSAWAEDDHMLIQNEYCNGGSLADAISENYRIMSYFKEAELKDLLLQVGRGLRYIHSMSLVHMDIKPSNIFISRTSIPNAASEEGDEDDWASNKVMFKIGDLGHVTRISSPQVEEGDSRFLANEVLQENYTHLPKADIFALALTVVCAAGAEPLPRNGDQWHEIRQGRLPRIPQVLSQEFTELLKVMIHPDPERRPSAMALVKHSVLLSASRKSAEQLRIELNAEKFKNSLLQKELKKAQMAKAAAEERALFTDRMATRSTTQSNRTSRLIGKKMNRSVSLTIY

SMILES	IC50 (Wee1-like protein kinase)	IC50 (NCI-H1299)	AUC(0-inf) [1]	half-life [2]	Tmax [3]	Cmax [4]
CN1CCN(C2CCN(c3ccc(Nc4ncc5c(F)c(C6CC6)n(-c6cccc(C(C)(C)O)n6)c5n4)cc3F)CC2)CC1	0.0106 µM	0.623 µM	4580 ng·h/mL	33.4 h	6.7 h	117 ng/mL
CN1CCC2(CC1)CCN(c1ccc(Nc3ncc4cc(C5CC5)n(-c5cccc(C(C)(C)O)n5)c4n3)cc1)CC2	–	0.199 µM	4070 ng·h/mL	19.2 h	4.8 h	163 ng/mL
Cc1cc2cnc(Nc3ccc(N4CCN(C)CC4)cc3)nc2n1-c1cccc(N=S(C)(C)=O)n1	–	0.059 µM	–	–	–	–
CC(C)c1cc2cnc(Nc3ccc(N4CCN(C)CC4)cc3)nc2n1-c1cccc(N=S(C)(C)=O)n1	–	0.1 µM	–	–	–	–
CC(C)c1cc2cnc(Nc3ccc(N4CCN(C)CC4)cc3)nc2n1-c1cccc(C(C)(C)O)n1	0.00042 µM	0.091 µM	–	–	–	–
CN1CCN(C2CCN(c3ccc(Nc4ncc5cc(C6CC6)n(-c6cccc(N=S(C)(C)=O)n6)c5n4)cc3)CC2)CC1	0.00254 µM	0.156 µM	–	–	–	–
Cc1cc2cnc(Nc3ccc(N4CCN(C)CC4)cc3)nc2n1-c1cccc(C(C)(C)O)n1	–	–	710 ng·h/mL	3.56 h	1 h	125 ng/mL
CN1CCN(c2ccc(Nc3ncc4cc(C5CC5)n(-c5cccc(N=S(C)(C)=O)n5)c4n3)cc2F)CC1	–	0.042 µM	–	–	–	–
CCc1cc2cnc(Nc3ccc(N4CCN(C)CC4)cc3)nc2n1-c1cccc(N=S(C)(C)=O)n1	–	0.023 µM	48 ng·h/mL	2.24 h	2.67 h	8.1 ng/mL
CCCc1c(F)c2cnc(Nc3ccc(N4CCN(C)CC4)cc3)nc2n1-c1cccc(N=S(C)(C)=O)n1	–	0.043 µM	314 ng·h/mL	4.58 h	1.67 h	36.8 ng/mL
COCc1cc2cnc(Nc3ccc(N4CCN(C)CC4)cc3)nc2n1-c1cccc(N=S(C)(C)=O)n1	0.00203 µM	0.101 µM	–	–	–	–
CCCc1c(F)c2cnc(Nc3ccc(N4CCN(C)CC4)cc3)nc2n1-c1cccc(C(C)(C)O)n1	0.0093 µM	1.72 µM	–	–	–	–
CN1CCN(c2ccc(Nc3ncc4cc(C5CC5)n(-c5cccc(N=S(C)(C)=O)n5)c4n3)cc2)CC1	0.00092 µM	0.042 µM	286 ng·h/mL	8.26 h	0.92 h	76.9 ng/mL
CCCc1cc2cnc(Nc3ccc(N4CCN(C)CC4)cc3)nc2n1-c1cccc(N=S(C)(C)=O)n1	–	0.033 µM	188 ng·h/mL	3.24 h	2.33 h	29.4 ng/mL
CCCc1cc2cnc(Nc3ccc(N4CCOCC4)cc3)nc2n1-c1cccc(N=S(C)(C)=O)n1	0.0083 µM	0.451 µM	–	–	–	–
C=CCn1c(=O)c2cnc(Nc3ccc(N4CCN(C)CC4)cc3)nc2n1-c1cccc(C(C)(C)O)n1 [ADAVOSERTIB]	–	0.104 µM	–	–	–	–

Continued, values first:

IC50 (Wee1-like protein kinase)	IC50 (NCI-H1299)	AUC(0-inf) [1]	half-life [2]	Tmax [3]	Cmax [4]	SMILES
0.00337 µM	0.332 µM	–	–	–	–	CCCc1c(F)c2cnc(Nc3ccc(N4CCOCC4)cc3)nc2n1-c1cccc(N=S(C)(C)=O)n1
0.0382 µM	0.288 µM	–	–	–	–	CN1CCN(c2ccc(Nc3ncc4c(F)c(C5CC5)n(-c5cccc(C(C)(C)O)n5)c4n3)cc2)CC1
0.00086 µM	0.211 µM	1750 ng·h/mL	10.9 h	6 h	83 ng/mL	CN1CCN(C2CCN(c3ccc(Nc4ncc5c(F)c(C6CC6)n(-c6cccc(C(C)(C)O)n6)c5n4)cc3)CC2)CC1
–	0.126 µM	–	–	–	–	CCCc1cc2cnc(Nc3ccc(N4CCN(C)CC4)cc3)nc2n1-c1cccc(C(C)(C)O)n1
0.0001 µM	–	–	–	–	–	CCc1cc2cnc(Nc3ccc(N4CCN(C)CC4)cc3)nc2n1-c1cccc(C(C)(C)O)n1
–	0.087 µM	–	–	–	–	CCCc1cc2cnc(Nc3ccc(N4CCC(N5CCN(C)CC5)CC4)cc3)nc2n1-c1cccc(N=S(C)(C)=O)n1
0.00133 µM	0.105 µM	–	–	–	–	CN1CCN(C2CCN(c3ccc(Nc4ncc5cc(C6CC6)n(-c6cccc(C(C)(C)O)n6)c5n4)cc3)CC2)CC1
